# Literature values as cited in patent US4528378A, “Substituted 3,4-diamino-1,2,5-thiadiazoles having histamine H2 -receptor antagonist activity” (Bristol-Myers Company, priority 1984, dated 1985).
# System: peptic ulcer disease
# Details: Gray et al., Lancet, 1, 8001 (1977)
structure (smiles),measurement,value
CN/C(=N/CCSCc1nc[nH]c1C)NC#N [cimetidine],clinical efficacy in treatment of peptic ulcer disease,effective therapeutic agent in the treatment of peptic ulcer disease
